Measured values from PubChem BioAssay AID2060332 (Molecular Pharmacology Branch, DTP, NCI, 2025).

System: LG0567-F671-PDC multi-cell spheroid viability
Assay: Anticancer human tumor LG0567-F671-PDC patient-derived lung adenocarcinoma cell line growth inhibition [IpAb]
Details: for IC50: curve of first compound; for viability, T/C: stronger effect = lower value
Outline: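 Combinations with ipatasertib or abemaciclib were tested on tumour spheroids holding HUVEC (25%) and MSC (15%) alongside 60% malignant cells. Top concentration was at or near clinical Cmax (10 microM if undefined), descending in half-log steps.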

[1] = second compound 0.01 µM, first compound 0.0316 µM
[2] = second compound 0.01 µM, first compound 0.1 µM
[3] = second compound 0.01 µM, first compound 0.316 µM
[4] = second compound 0.01 µM, first compound 1 µM
[5] = second compound 0.01 µM, first compound 3.16 µM
[6] = second compound 0.01 µM, first compound 10 µM
[7] = second compound 0.0316 µM, first compound 0.0316 µM
[8] = second compound 0.0316 µM, first compound 0.1 µM
[9] = second compound 0.0316 µM, first compound 0.316 µM
[10] = second compound 0.0316 µM, first compound 1 µM
[11] = second compound 0.0316 µM, first compound 3.16 µM
[12] = second compound 0.0316 µM, first compound 10 µM
[13] = second compound 0.1 µM, first compound 0.0316 µM
[14] = second compound 0.1 µM, first compound 0.1 µM
[15] = second compound 0.1 µM, first compound 0.316 µM
[16] = second compound 0.1 µM, first compound 1 µM
[17] = second compound 0.1 µM, first compound 3.16 µM
[18] = second compound 0.1 µM, first compound 10 µM
[19] = second compound 0.316 µM, first compound 0.0316 µM
[20] = second compound 0.316 µM, first compound 0.1 µM
[21] = second compound 0.316 µM, first compound 0.316 µM
[22] = second compound 0.316 µM, first compound 1 µM
[23] = second compound 0.316 µM, first compound 3.16 µM
[24] = second compound 0.316 µM, first compound 10 µM
[25] = second compound 1 µM, first compound 0.0316 µM
[26] = second compound 1 µM, first compound 0.1 µM
[27] = second compound 1 µM, first compound 0.316 µM
[28] = second compound 1 µM, first compound 1 µM
[29] = second compound 1 µM, first compound 3.16 µM
[30] = second compound 1 µM, first compound 10 µM
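Further: viability read after 7 days of drug exposure.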
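Wherever viability, T/C is given: 100% = DMSO vehicle control luminescence.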

Question: How did the IC50 (second compound 0.01 µM) turn out when `C=CC(=O)N1CCN(c2nc(=O)n(-c3c(C)ccnc3C(C)C)c3nc(-c4c(O)cccc4F)c(F)cc23)C(C)C1` (stereo not given) + CCN1CCN(Cc2ccc(Nc3ncc(F)c(-c4cc(F)c5nc(C)n(C(C)C)c5c4)n3)nc2)CC1 was run?
Answer: < 31.6 nM

Question: What about the IC50 (second compound 0.0316 µM) of the same compound?
Answer: < 31.6 nM

Question: What about the IC50 (second compound 0.1 µM) of the same compound?
Answer: < 31.6 nM

Question: And the IC50 (second compound 0.316 µM)?
Answer: < 31.6 nM

Question: And the IC50 (second compound 1 µM)?
Answer: < 31.6 nM

Question: What about the viability, T/C [1] of the same compound?
Answer: 21.1%

Question: What about the viability, T/C [2] of the same compound?
Answer: 19.5%

Question: What about the viability, T/C [3] of the same compound?
Answer: 14.9%

Question: What about the viability, T/C [4] of the same compound?
Answer: 19.8%

Question: What about the viability, T/C [5] of the same compound?
Answer: 17.1%

Question: What about the viability, T/C [6] of the same compound?
Answer: 17.5%

Question: What about the viability, T/C [7] of the same compound?
Answer: 18.4%

Question: What about the viability, T/C [8] of the same compound?
Answer: 14.3%

Question: What about the viability, T/C [9] of the same compound?
Answer: 15.7%

Question: And the viability, T/C [10]?
Answer: 15.9%

Question: What about the viability, T/C [11] of the same compound?
Answer: 13.1%

Question: What about the viability, T/C [12] of the same compound?
Answer: 14%

Question: What about the viability, T/C [13] of the same compound?
Answer: 15.5%

Question: And the viability, T/C [14]?
Answer: 15.8%

Question: What about the viability, T/C [15] of the same compound?
Answer: 16.6%

Question: And the viability, T/C [16]?
Answer: 13.2%

Question: And the viability, T/C [17]?
Answer: 13.8%

Question: And the viability, T/C [18]?
Answer: 13.9%

Question: What about the viability, T/C [19] of the same compound?
Answer: 16.2%

Question: What about the viability, T/C [20] of the same compound?
Answer: 18.4%

Question: And the viability, T/C [21]?
Answer: 22.1%

Question: And the viability, T/C [22]?
Answer: 18.2%

Question: What about the viability, T/C [23] of the same compound?
Answer: 16.6%

Question: What about the viability, T/C [24] of the same compound?
Answer: 16%

Question: What about the viability, T/C [25] of the same compound?
Answer: 18.6%

Question: And the viability, T/C [26]?
Answer: 23%

Question: And the viability, T/C [27]?
Answer: 27.1%

Question: And the viability, T/C [28]?
Answer: 18.9%

Question: And the viability, T/C [29]?
Answer: 25.8%

Question: What about the viability, T/C [30] of the same compound?
Answer: 21.1%

Question: Which results are given for `Cn1ncc(Cl)c1-c1cc(C(=O)NC(CN)Cc2cccc(F)c2)sc1Cl` (stereo not given) + CCN1CCN(Cc2ccc(Nc3ncc(F)c(-c4cc(F)c5nc(C)n(C(C)C)c5c4)n3)nc2)CC1?
Answer: IC50 (second compound 0.01 µM): 1850 nM; IC50 (second compound 0.0316 µM): 1190 nM; IC50 (second compound 0.1 µM): 470 nM; IC50 (second compound 0.316 µM): < 31.6 nM; IC50 (second compound 1 µM): 226 nM; viability, T/C [1]: 88.8%; viability, T/C [2]: 68%; viability, T/C [3]: 50.2%; viability, T/C [4]: 61.4%; viability, T/C [5]: 49.9%; viability, T/C [6]: 0.15%; viability, T/C [7]: 57.7%; viability, T/C [8]: 53.9%; viability, T/C [9]: 49.9%; viability, T/C [10]: 54.2%; viability, T/C [11]: 28.6%; viability, T/C [12]: 0.13%; viability, T/C [13]: 74.8%; viability, T/C [14]: 51.4%; viability, T/C [15]: 52.7%; viability, T/C [16]: 45.8%; viability, T/C [17]: 27.6%; viability, T/C [18]: 0.13%; viability, T/C [19]: 42.4%; viability, T/C [20]: 51.4%; viability, T/C [21]: 57.9%; viability, T/C [22]: 33%; viability, T/C [23]: 30.9%; viability, T/C [24]: 0.14%; viability, T/C [25]: 59%; viability, T/C [26]: 51.8%; viability, T/C [27]: 47.2%; viability, T/C [28]: 37.4%; viability, T/C [29]: 30%; viability, T/C [30]: 0.19%

Question: Which IC50 (second compound 0.01 µM) does the source give for `Cn1ncnc1[C@H]1c2n[nH]c(=O)c3cc(F)cc(c23)N[C@@H]1c1ccc(F)cc1` + CCN1CCN(Cc2ccc(Nc3ncc(F)c(-c4cc(F)c5nc(C)n(C(C)C)c5c4)n3)nc2)CC1 here?
Answer: 71.7 nM

Question: What about the IC50 (second compound 0.0316 µM) of the same compound?
Answer: 18.2 nM

Question: What about the IC50 (second compound 0.1 µM) of the same compound?
Answer: 11.2 nM

Question: And the IC50 (second compound 0.316 µM)?
Answer: 22 nM

Question: And the IC50 (second compound 1 µM)?
Answer: 5.45 nM

Question: And the viability, T/C (second compound 0.01 µM, first compound 0.000316 µM)?
Answer: 94.2%

Question: And the viability, T/C (second compound 0.01 µM, first compound 0.001 µM)?
Answer: 89.6%

Question: And the viability, T/C (second compound 0.01 µM, first compound 0.00316 µM)?
Answer: 64.2%

Question: What about the viability, T/C (second compound 0.01 µM, first compound 0.01 µM) of the same compound?
Answer: 76.7%

Question: What about the viability, T/C [1] of the same compound?
Answer: 64.9%

Question: What about the viability, T/C [2] of the same compound?
Answer: 40.9%

Question: And the viability, T/C (second compound 0.0316 µM, first compound 0.000316 µM)?
Answer: 64%

Question: And the viability, T/C (second compound 0.0316 µM, first compound 0.001 µM)?
Answer: 81.5%

Question: And the viability, T/C (second compound 0.0316 µM, first compound 0.00316 µM)?
Answer: 69.3%

Question: And the viability, T/C (second compound 0.0316 µM, first compound 0.01 µM)?
Answer: 46.1%

Question: What about the viability, T/C [7] of the same compound?
Answer: 49.8%

Question: And the viability, T/C [8]?
Answer: 24.7%

Question: What about the viability, T/C (second compound 0.1 µM, first compound 0.000316 µM) of the same compound?
Answer: 63.2%

Question: What about the viability, T/C (second compound 0.1 µM, first compound 0.001 µM) of the same compound?
Answer: 75.8%

Question: And the viability, T/C (second compound 0.1 µM, first compound 0.00316 µM)?
Answer: 63.1%

Question: And the viability, T/C (second compound 0.1 µM, first compound 0.01 µM)?
Answer: 52.8%

Question: And the viability, T/C [13]?
Answer: 29.8%

Question: And the viability, T/C [14]?
Answer: 30.4%

Question: What about the viability, T/C (second compound 0.316 µM, first compound 0.000316 µM) of the same compound?
Answer: 63.5%

Question: And the viability, T/C (second compound 0.316 µM, first compound 0.001 µM)?
Answer: 72.2%

Question: And the viability, T/C (second compound 0.316 µM, first compound 0.00316 µM)?
Answer: 66.5%

Question: What about the viability, T/C (second compound 0.316 µM, first compound 0.01 µM) of the same compound?
Answer: 52.1%

Question: And the viability, T/C [19]?
Answer: 49.2%

Question: And the viability, T/C [20]?
Answer: 30%

Question: What about the viability, T/C (second compound 1 µM, first compound 0.000316 µM) of the same compound?
Answer: 61.9%

Question: And the viability, T/C (second compound 1 µM, first compound 0.001 µM)?
Answer: 67.4%

Question: And the viability, T/C (second compound 1 µM, first compound 0.00316 µM)?
Answer: 56.1%

Question: And the viability, T/C (second compound 1 µM, first compound 0.01 µM)?
Answer: 43.3%

Question: And the viability, T/C [25]?
Answer: 32.8%

Question: And the viability, T/C [26]?
Answer: 40.3%
